The results in this text go back to publication PMC12190736, “Development and In Vitro Characterization of [^3H]GMC-058 as Radioligand for Imaging Parkinsonian-Related Proteinopathies” (Cells, 2025).

Assay [1] deals with tissue microarrays (TMAs) from cases with different proteinopathies. Description: Autoradiography and emulsion autoradiography on tissue microarrays. The assay is classed as binding, human. On the procedure: Tissue micro-arrays (TMAs), prepared from paraffin-embedded tissue from human post-mortem tissue as described in [14], were first de-paraffinized with two 1 h and one overnight incubation in Neo-Clear Xylene Substitute (Sigma-Aldrich, St. Louis, MO, USA) at 37 °C and then […] in three short incubations at RT with decreasing concentrations of ethanol before autoradiography with [^3H]GMC-058 was performed as described above. For the saturation binding autoradiography, duplicate slides of each TMA set were incubated with 0.3 nM to 200 nM [^3H]GMC-058. Adjacent sections were co-incubated with 5 μM of unlabeled GMC-044 to calculate NSB. The quantification of total and non-specific binding was performed via delineation of the ROIs on the whole core, except for MSA, where the ROI followed the areas in which the binding of [^3H]GMC-058 corresponded to areas with α-syn inclusions. Those cores that had imperfections or were incomplete were not included in the analysis, or only the area of remaining tissue that adhered to the glass slide was delineated. For the cores from the substantia nigra of PD patient cases, the cores selected for analysis were those containing α-syn inclusion, but no A-β deposits of pTau tangles. The information was collected from IHC analysis of adjacent TMA slides.
For high-resolution emulsion autoradiography, an autoradiography experiment with TMAs using 25 nM [^3H]GMC-058 was performed as described above. At the end of the 90 h exposure to the storage phosphor screen, slides were stored in a vacuum until dipping in a photoemulsion. In the dark, using a sodium lamp, Agar Scientific, AGP9284 type NTB emulsion was melted in a heated water bath and diluted (1:1) with ddH2O. The emulsion was poured into dipping chambers, and the slides were dipped and placed vertically to air-dry. When completely dry, the slides were placed in a light-tight slide box with desiccant and exposed at 4 C for 1–12 weeks. After exposure, the slides were developed in diluted Phenisol Developer for 2 min, rinsed in water, and fixed in hypam Fixer at 17 °C in a water bath. After rinsing in water, the slides were counterstained with Harris HTX, dehydrated in graded ethanol, cleared in Xylene, and mounted in Pertex. Images were taken using a 3D Histech P250 III scanner (3DHISTECH Kft. Hungary) at up to 15 focal layers with a distance of 0.2 μm.

In assay [2] the target is AD, PSP, CBD, MSA-P, PD and control brain homogenates. Description: Saturation binding assays with [^3H]GMC-058 in brain homogenates.
Description: For AD, CBD, PSP, and CT cases, the frozen tissue blocks were prepared as described by Stehouwer et al. [13]. In brief, tissue blocks were thawed and homogenized in ice-cold pH 7.0 phosphate-buffered saline (PBS) at 300 mg/mL on ice using a glass homogenizer, diluted 30-fold with PBS to 10 mg/mL, and homogenized a second time with a Brinkmann Polytron homogenizer before storage at −80 °C.
After incubation, samples were filtered under vacuum on equilibrated GF/B UniFilter plates (PerkinElmer) using the FilterMate 196 (PerkinElmer). Afterwards, filters were washed three times with 250 μL chilled buffer (PBS + 20% EtOH). [^3H]GMC-058 binding was measured with a beta scintillation counter (PerkinElmer). The saturation data was fitted and analyzed using the non-linear regression function of GraphPad Prism 10 software to calculate the dissociation constant (KD) and maximum number of binding sites (Bmax). Scatchard plots were prepared with GraphPad Prism 10 software to display the saturation binding data.

Structures are written as SMILES. Marks after values point to notes of the source that are not given here.

Broadly, the Kd is a measure of binding affinity in units of concentration. A low value points to higher affinity. As to `[3H]c1cc(N2CCN(c3ccc(NC(=O)C(C)(C)C)cc3)CC2)ccc1OC` [[^3H]GMC-058, N-(4-(4-(4-methoxy-[3-3H]phenyl)piperazin-1-yl)phenyl)pivalamide], the Saturation binding autoradiography entry in assay [1] (0.3 nM to 200 nM, TMAs) is given as “specific binding did not reach saturation in any of the tissues”. For the same compound, the “Specific binding versus displaceable binding in controls” value in assay [1] (25 nM, PD, MSA, CAA, AD, PSP and CBD, p < 0.01) is listed as “significantly higher than the displaceable binding in controls”. Further, the “Co-localization of binding (high-resolution autoradiography)” value in assay [1] (25 nM, TMAs) was “co-localized with α-syn inclusions in PD and MSA, with dense Aβ plaques in CAA and AD, and with p-tau inclusions in PSP and CBD”. Besides, the “Specific binding, mean” value in assay [1] (25 nM, TMAs, AD) was 127 ** fmol/mg tissue equivalent; in assay [1] (25 nM, TMAs, CAA) it was 131 ** fmol/mg tissue equivalent; in assay [1] (25 nM, TMAs, CBD) it was 204 *** fmol/mg tissue equivalent; in assay [1] (25 nM, TMAs, MSA), 166 ** fmol/mg tissue equivalent; in assay [1] (25 nM, TMAs, PD) it was 129 *** fmol/mg tissue equivalent; in assay [1] (25 nM, TMAs, PSP), 173 *** fmol/mg tissue equivalent. Besides, the “Displaceable (off-target) binding, mean” value in assay [1] (25 nM, TMAs, NDE (non-dementia elderly controls)) was determined as 70 fmol/mg tissue equivalent; in assay [1] (25 nM, TMAs, liver control) it was 57 fmol/mg tissue equivalent. The Kd in assay [2] (AD brain homogenates) is 5.4 nM; in assay [2] (CBD brain homogenates) it was greater than 50 nM; in assay [2] (PSP brain homogenates), greater than 50 nM; in assay [2] (control brain homogenates) it was greater than 100 nM. Moreover, the Saturation binding entry in assay [2] (PD tissue) is given as “No evidence of saturation binding”.
